# Source: paper PMC8643097 (British journal of pharmacology, 2021)
# Columns and labels:
# Nav1.7 = Nav1.7 (Homo sapiens, UniProt Q15858); type: cell-based
# Nav1.8 = Nav1.8 (Homo sapiens, UniProt Q9Y5Y9); type: cell-based; settings: CHO-K1, read-out: % inhibition at 300 μM
# Sequence of Nav1.8 (Q9Y5Y9 whole entry): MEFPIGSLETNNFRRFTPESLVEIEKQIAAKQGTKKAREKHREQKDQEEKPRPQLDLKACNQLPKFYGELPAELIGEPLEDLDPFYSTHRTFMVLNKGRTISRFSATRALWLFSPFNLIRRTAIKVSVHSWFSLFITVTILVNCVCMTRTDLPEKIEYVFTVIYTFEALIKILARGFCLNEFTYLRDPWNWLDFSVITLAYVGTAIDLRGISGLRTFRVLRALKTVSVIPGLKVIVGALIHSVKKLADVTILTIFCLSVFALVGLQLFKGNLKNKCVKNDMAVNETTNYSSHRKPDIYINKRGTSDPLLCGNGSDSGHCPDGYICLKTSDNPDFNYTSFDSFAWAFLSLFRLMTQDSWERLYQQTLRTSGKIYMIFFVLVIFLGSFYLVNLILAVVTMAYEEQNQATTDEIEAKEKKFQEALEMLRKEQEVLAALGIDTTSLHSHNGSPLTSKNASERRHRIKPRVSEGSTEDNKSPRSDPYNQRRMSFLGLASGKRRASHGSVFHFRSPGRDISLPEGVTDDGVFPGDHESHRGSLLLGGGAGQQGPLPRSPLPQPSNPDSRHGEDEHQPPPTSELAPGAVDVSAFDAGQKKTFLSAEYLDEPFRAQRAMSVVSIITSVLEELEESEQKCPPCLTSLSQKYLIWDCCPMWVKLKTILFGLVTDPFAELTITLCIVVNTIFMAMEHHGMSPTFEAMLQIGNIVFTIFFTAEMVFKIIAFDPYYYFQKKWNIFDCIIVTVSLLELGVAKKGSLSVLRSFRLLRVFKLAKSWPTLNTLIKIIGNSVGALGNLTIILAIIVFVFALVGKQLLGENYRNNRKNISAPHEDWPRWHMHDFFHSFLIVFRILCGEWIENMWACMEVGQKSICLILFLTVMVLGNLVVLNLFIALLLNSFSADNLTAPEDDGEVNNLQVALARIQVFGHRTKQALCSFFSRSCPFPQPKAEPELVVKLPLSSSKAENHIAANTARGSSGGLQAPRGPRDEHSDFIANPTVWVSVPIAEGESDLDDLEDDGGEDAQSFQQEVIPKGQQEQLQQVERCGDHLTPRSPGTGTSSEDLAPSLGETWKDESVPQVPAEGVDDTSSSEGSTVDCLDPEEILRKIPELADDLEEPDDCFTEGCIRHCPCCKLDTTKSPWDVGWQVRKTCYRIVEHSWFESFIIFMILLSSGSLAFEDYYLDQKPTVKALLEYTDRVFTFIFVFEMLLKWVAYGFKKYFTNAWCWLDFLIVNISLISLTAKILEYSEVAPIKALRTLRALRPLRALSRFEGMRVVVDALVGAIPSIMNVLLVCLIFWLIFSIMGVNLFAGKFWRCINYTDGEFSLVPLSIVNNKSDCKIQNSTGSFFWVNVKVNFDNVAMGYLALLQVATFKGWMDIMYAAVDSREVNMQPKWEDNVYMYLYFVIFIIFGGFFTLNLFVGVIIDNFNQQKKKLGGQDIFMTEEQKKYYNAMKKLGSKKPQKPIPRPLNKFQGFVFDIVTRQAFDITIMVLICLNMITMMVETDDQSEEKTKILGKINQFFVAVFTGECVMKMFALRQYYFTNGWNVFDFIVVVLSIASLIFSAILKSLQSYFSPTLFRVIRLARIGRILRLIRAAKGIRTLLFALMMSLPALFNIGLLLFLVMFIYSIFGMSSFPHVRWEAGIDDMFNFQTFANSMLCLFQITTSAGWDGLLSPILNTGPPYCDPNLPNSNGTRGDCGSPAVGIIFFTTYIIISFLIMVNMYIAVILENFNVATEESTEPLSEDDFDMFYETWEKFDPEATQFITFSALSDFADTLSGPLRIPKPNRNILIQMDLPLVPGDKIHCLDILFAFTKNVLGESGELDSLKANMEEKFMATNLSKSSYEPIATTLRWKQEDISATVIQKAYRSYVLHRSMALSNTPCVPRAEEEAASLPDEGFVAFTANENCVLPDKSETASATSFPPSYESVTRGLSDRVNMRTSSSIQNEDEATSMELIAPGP
# Sequence of Nav1.8 (Q9NY72 23-215 partner): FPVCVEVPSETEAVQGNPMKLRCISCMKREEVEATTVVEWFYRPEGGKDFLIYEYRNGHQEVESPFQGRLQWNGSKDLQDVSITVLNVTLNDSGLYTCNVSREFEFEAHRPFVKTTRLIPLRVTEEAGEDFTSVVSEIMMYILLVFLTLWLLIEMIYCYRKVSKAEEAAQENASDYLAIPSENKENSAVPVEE
# Sequence of Nav1.7 (Q15858 whole entry): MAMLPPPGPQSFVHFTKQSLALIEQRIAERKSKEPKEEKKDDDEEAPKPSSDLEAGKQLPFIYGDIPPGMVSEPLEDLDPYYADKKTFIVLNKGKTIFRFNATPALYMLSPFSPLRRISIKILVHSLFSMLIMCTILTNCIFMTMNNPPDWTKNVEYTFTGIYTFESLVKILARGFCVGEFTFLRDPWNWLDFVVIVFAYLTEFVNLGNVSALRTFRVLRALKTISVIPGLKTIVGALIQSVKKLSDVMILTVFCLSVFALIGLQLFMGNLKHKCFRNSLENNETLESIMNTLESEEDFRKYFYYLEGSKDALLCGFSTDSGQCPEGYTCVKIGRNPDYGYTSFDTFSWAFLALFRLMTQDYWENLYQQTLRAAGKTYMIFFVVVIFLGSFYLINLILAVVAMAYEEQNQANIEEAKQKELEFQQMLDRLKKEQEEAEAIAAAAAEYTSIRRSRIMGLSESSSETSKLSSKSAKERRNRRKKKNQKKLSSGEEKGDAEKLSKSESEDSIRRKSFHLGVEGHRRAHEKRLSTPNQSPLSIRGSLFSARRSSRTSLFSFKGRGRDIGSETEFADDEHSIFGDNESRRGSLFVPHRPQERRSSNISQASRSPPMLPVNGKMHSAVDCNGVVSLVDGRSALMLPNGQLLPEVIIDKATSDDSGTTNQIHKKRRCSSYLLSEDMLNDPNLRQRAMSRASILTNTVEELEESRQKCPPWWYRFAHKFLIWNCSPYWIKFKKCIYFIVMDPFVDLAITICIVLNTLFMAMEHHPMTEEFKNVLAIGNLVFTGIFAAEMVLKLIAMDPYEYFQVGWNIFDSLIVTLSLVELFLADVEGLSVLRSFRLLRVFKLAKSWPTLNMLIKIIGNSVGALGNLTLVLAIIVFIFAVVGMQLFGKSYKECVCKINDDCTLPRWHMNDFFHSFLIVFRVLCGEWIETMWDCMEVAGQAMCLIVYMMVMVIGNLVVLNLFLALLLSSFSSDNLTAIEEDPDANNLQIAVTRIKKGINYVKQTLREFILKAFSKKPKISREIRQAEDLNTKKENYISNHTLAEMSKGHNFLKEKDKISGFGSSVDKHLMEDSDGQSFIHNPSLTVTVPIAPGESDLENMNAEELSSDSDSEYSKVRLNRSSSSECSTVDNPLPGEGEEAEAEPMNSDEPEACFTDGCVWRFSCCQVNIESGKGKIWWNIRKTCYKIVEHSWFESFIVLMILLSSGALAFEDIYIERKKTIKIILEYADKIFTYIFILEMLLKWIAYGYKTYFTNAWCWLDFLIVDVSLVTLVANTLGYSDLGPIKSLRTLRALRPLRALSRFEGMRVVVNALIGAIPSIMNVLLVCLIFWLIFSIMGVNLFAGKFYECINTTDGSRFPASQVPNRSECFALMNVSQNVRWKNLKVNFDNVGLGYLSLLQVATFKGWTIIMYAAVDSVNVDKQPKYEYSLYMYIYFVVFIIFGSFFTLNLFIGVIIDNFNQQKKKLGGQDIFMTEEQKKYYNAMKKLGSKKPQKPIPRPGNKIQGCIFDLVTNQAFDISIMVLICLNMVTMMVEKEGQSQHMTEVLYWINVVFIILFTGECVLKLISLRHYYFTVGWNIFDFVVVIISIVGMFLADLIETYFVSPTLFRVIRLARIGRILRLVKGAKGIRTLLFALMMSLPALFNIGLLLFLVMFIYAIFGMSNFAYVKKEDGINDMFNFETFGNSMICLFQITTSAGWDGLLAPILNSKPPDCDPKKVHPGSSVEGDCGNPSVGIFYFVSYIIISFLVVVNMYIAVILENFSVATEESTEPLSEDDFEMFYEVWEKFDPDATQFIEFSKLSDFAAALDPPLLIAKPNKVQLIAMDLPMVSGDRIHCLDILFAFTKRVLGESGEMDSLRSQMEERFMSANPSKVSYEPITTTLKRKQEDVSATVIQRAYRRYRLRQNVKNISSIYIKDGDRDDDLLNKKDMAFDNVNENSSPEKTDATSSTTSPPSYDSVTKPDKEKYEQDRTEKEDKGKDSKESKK
SMILES,IC50 (Nav1.7) [µM],inhibition at 300 µM (Nav1.8) [%]
CC[N+](CC)(CC)CC(=O)Nc1c(C)cccc1C [QX-314],66,
"CCC(C(=O)Nc1c(C)cccc1C)[N+]1(CC)CCCCC1 (stereo not drawn) [BW-031, 1-(1-(2,6-dimethylphenylamino)-1-oxobutan-2-yl)-1-ethylpiperidinium]",9.5,30 ± 18
